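Briefly, cells in 96-well plates were exposed to five compound concentrations for 48 h, and endpoints were estimated by linear interpolation. The concentration for full growth arrest is given as TGI.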
Legend:
Test in all cases: inhibition of tumour cell growth, NCI panel, 48 h
786-0 renal = system: 786-0 renal
A498 renal = system: A498 renal
ACHN renal = system: ACHN renal
CAKI-1 renal = system: CAKI-1 renal
CCRF-CEM leukemia = system: CCRF-CEM leukemia
DU-145 prostate = system: DU-145 prostate
EKVX NSCLC = system: EKVX NSCLC
HCC-2998 colon = system: HCC-2998 colon
HCT-116 colon = system: HCT-116 colon
HCT-15 colon = system: HCT-15 colon
HL-60(TB) leukemia = system: HL-60(TB) leukemia
HOP-62 NSCLC = system: HOP-62 NSCLC
HOP-92 NSCLC = system: HOP-92 NSCLC
HS 578T breast = system: HS 578T breast
HT29 colon = system: HT29 colon
IGROV1 ovarian = system: IGROV1 ovarian
K-562 leukemia = system: K-562 leukemia
KM12 colon = system: KM12 colon
LOX IMVI melanoma = system: LOX IMVI melanoma
M14 melanoma = system: M14 melanoma
MCF7 breast = system: MCF7 breast
MDA-MB-231 breast = system: MDA-MB-231 breast
MDA-MB-435 = system: MDA-MB-435
MDA-N = system: MDA-N
MOLT-4 leukemia = system: MOLT-4 leukemia
NCI-H226 lung = system: NCI-H226 lung
NCI-H23 lung = system: NCI-H23 lung
NCI-H460 lung = system: NCI-H460 lung
NCI-H522 lung = system: NCI-H522 lung
NCI/ADR-RES ovarian = system: NCI/ADR-RES ovarian
OVCAR-3 ovarian = system: OVCAR-3 ovarian
OVCAR-4 ovarian = system: OVCAR-4 ovarian
OVCAR-5 ovarian = system: OVCAR-5 ovarian
OVCAR-8 ovarian = system: OVCAR-8 ovarian
PC-3 prostate = system: PC-3 prostate
RPMI-8226 leukemia = system: RPMI-8226 leukemia
RXF 393 renal = system: RXF 393 renal
SF-268 CNS = system: SF-268 CNS
SF-295 CNS = system: SF-295 CNS
SF-539 CNS = system: SF-539 CNS
SK-MEL-2 melanoma = system: SK-MEL-2 melanoma
SK-MEL-28 melanoma = system: SK-MEL-28 melanoma
SK-MEL-5 melanoma = system: SK-MEL-5 melanoma
SK-OV-3 ovarian = system: SK-OV-3 ovarian
SR leukemia = system: SR leukemia
SW-620 colon = system: SW-620 colon
T-47D breast = system: T-47D breast
TK-10 renal = system: TK-10 renal
U251 CNS = system: U251 CNS
UACC-257 melanoma = system: UACC-257 melanoma
UO-31 renal = system: UO-31 renal

## COc1ccc(C=C2C(C)=NN(c3cccc(Cl)c3)C23C(Cl)C(=O)N3c2nc3ccccc3s2)cc1 (stereo unspecified)
786-0 renal
  TGI: 29.4 µM
A498 renal
  TGI: 34.8 µM
ACHN renal
  TGI: 51.6 µM
CAKI-1 renal
  TGI: 61 µM
CCRF-CEM leukemia
  TGI: 30.5 µM
DU-145 prostate
  TGI: 33 µM
EKVX NSCLC
  TGI: > 100 µM
HCC-2998 colon
  TGI: 7.42 µM
HCT-116 colon
  TGI: 28.8 µM
HCT-15 colon
  TGI: 37.1 µM
HL-60(TB) leukemia
  TGI: 6.62 µM
HOP-62 NSCLC
  TGI: 44.4 µM
HOP-92 NSCLC
  TGI: 24.6 µM
HS 578T breast
  TGI: 74.1 µM
HT29 colon
  TGI: 24.4 µM
IGROV1 ovarian
  TGI: 40.1 µM
K-562 leukemia
  TGI: > 100 µM
KM12 colon
  TGI: 34.8 µM
LOX IMVI melanoma
  TGI: 38.5 µM
M14 melanoma
  TGI: 44.5 µM
MCF7 breast
  TGI: 61.4 µM
MDA-MB-231 breast
  TGI: 51.5 µM
MDA-MB-435
  TGI: 66.8 µM
MDA-N
  TGI: 44.6 µM
MOLT-4 leukemia
  TGI: 68 µM
NCI-H226 lung
  TGI: 79.1 µM
NCI-H23 lung
  TGI: 36 µM
NCI-H460 lung
  TGI: 66.6 µM
NCI-H522 lung
  TGI: 22 µM
NCI/ADR-RES ovarian
  TGI: 85.7 µM
OVCAR-3 ovarian
  TGI: 42.9 µM
OVCAR-4 ovarian
  TGI: 93.5 µM
OVCAR-5 ovarian
  TGI: 37.6 µM
OVCAR-8 ovarian
  TGI: 42 µM
PC-3 prostate
  TGI: 39.3 µM
RPMI-8226 leukemia
  TGI: > 100 µM
RXF 393 renal
  TGI: 28 µM
SF-268 CNS
  TGI: 78.3 µM
SF-295 CNS
  TGI: 50.9 µM
SF-539 CNS
  TGI: > 100 µM
SK-MEL-2 melanoma
  TGI: 38.9 µM
SK-MEL-28 melanoma
  TGI: 23.9 µM
SK-MEL-5 melanoma
  TGI: 32.9 µM
SK-OV-3 ovarian
  TGI: 89.7 µM
SR leukemia
  TGI: 85.7 µM
SW-620 colon
  TGI: 20.7 µM
T-47D breast
  TGI: > 100 µM
TK-10 renal
  TGI: > 100 µM
U251 CNS
  TGI: 40.9 µM
UACC-257 melanoma
  TGI: 72.3 µM
UO-31 renal
  TGI: 33.4 µM
